Consider 27 compounds from patent publication US20070054916A1, “Aryl nitrogen-containing bicyclic compounds and methods of use” (Amgen Inc., priority 2004, published 2007).

This assay relates to production of TNF by monocytes activated with bacterial lipopolysaccharide (LPS). The assay can be described thus: Lipopolysaccharide-activated monocyte TNF production assay. It is filed as cell-based. Conditions: Homo sapiens, read-out: IC50 values in the monocyte assay (LPS induced TNF release). The method, boiled down:
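Adherent human PBMC-derived monocytes (~70%) in DMEM/2% FCS were pre-incubated 60 min with nine two-fold compound dilutions, then stimulated with E. coli K532 LPS (added as 30 ng/ml solution) for 4 h at 37 °C. Supernatant TNF-α was measured by sandwich ELISA. IC50 was taken from a polynomial fit of TNF versus compound concentration.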
Regarding `CCN(CC)CC(=O)N1CC(C)(C)c2ccc(NC(=O)c3ccc(C)c(-c4ccc5nc(N)ncc5c4)c3)cc21` [Example 64, 3-(2-amino-6-quinazolinyl)-N-(1-(N,N-diethyiglycyl)-3,3-dimethyl-2,3-dihydro-1H-indol-6-yl)-4-methylbenzamide], the IC50 is at most 25 µM.

With `CNc1ncc2cc(-c3cc(C(=O)Nc4ccc(Cl)c(C(F)(F)F)c4)ccc3C)ccc2n1` [Example 12, N-(4-chloro-3-(trifluoromethyl)phenyl)-4-methyl-3-(2-(methylamino)-6-quinazolinyl)benzamide], the IC50 was at most 25 µM.

Consider `Cc1cc(C)c(-c2ccc3nc(N)ncc3c2)c(C)c1NC(=O)c1cccc(C(F)(F)F)c1` [Example 224, N-(3-(2-amino-6-quinazolinyl)-2,4,6-trimethylphenyl)-3-(trifluoromethyl) benzamide], for which the IC50 was at most 25 µM.

As to `CNc1ncc2cc(-c3ccc(F)c(C(=O)Nc4cc(C(F)(F)F)ccc4N(C)CCCN(C)C)c3)ccc2n1` [Example 9, N-(2-((3-(dimethylamino)propyl)(methyl)amino)-5-(trifluoromethyl)phenyl)-2-fluoro-5-(2-(methylamino)-6-quinazolinyl)benzamide], the IC50 was at most 25 µM.

On to `COc1ccc(OC)c(NC(=O)c2ccc(C)c(-c3ccc4nc(N)ncc4c3)c2)c1` [Example 148, 3-(2-amino-6-quinazolinyl)-N-(2,5-bis(methyloxy)phenyl)-4-methylbenzamide], for which the IC50 was at most 25 µM.

In the case of `CNc1ncc2cc(-c3cccc(NC(=O)c4cccc(C(F)(F)F)c4)c3C)cnc2n1` [Example 198, N-2-methyl-3-(2-(methylamino)pyrido[2,3-d]pyrimidin-6-yl)-N-(3-(trifluoromethyl)phenyl)benzamide], the IC50 is at most 25 µM.

In the case of `CNc1ncc2cc(-c3cccc(C(=O)Nc4cccc(C(F)(F)F)c4)c3)ccc2n1` [Example 53, 3-(2-(methylamino)-6-quinazolinyl)-N-(3-(trifluoromethyl)phenyl)benzamide], the IC50 was at most 25 µM.

`CCN(CC)CC(=O)Nc1cccc(NC(=O)c2ccc(C)c(-c3ccc4nc(N)ncc4c3)c2)c1C` [Example 63, 3-(2-amino-6-quinazolinyl)-N-(3-((N,N-diethylglycyl)amino)-2-methyiphenyl)-4-methylbenzamide]: the IC50 is at most 25 µM.

As for `Cc1c(NC(=O)c2cccc(C(F)(F)F)c2)cccc1-c1ccc2nc(N)ncc2c1` [Example 197, N-(3-(2-amino-6-quinazolinyl)-2-methylphenyl)-3-(trifluoromethyl)benzamide], the 50% inhibitory concentration (IC50) is at most 25 µM.

Turning to `Cc1ccc(C(=O)Nc2cc(C(F)(F)F)ccc2F)cc1-c1ccc2nc(N)ncc2c1` [Example 280, 3-(2-amino-6-quinazolinyl)-N-(2-fluoro-5-(trifluoromethyl)phenyl)-4-methylbenzamide], the IC50 was at most 25 µM.

`Nc1ncc2cc(-c3cc(NC(=O)c4cccc(C(F)(F)F)c4F)ccc3Cl)ccc2n1` [Example 481, N-(3-(2-amino-6-quinazolinyl)-4-chlorophenyl)-2-fluoro-3-(trifluoromethyl)benzamide]: the IC50 is at most 25 µM.

As to `Cc1ccc(C(=O)NC2CC2)cc1-c1ccc2nc(N)ncc2c1` [Example 40, 3-(2-amino-6-quinazolinyl)-N-cyclopropyl-4-methylbenzamide], the IC50 is at most 25 µM.

Take `CN1CC[C@@H](N(C)c2ccc(C(F)(F)F)cc2NC(=O)c2cc(-c3ccc4nc(N)ncc4c3)ccc2F)C1` [Example 419, 5-(2-amino-6-quinazolinyl)-2-fluoro-N-(2-(methyl((3R)-1-methyl-3-pyrrolidinyl)amino)-5-(trifluoromethyl)phenyl)benzamide]: the IC50 is at most 25 µM.

As to `Cc1ccc(C(=O)Nc2nc(C)c(C)s2)cc1-c1ccc2nc(N)ncc2c1` [Example 225, 3-(2-amino-6-quinazolinyl)-N-(4,5-dimethyl-1,3-thiazol-2-yl)-4-methylbenzamide], the IC50 was at most 25 µM.

As to `Nc1ncc2cc(-c3ccc(F)c(NC(=O)c4cccc(Cl)c4Cl)c3)ccc2n1` [Example 487, N-(5-(2-amino-6-quinazolinyl)-2-fluorophenyl)-2,3-dichlorobenzamide], the IC50 was at most 25 µM.

In the case of `CNc1ncc2cc(-c3cc(C(=O)Nc4cc(C(F)(F)F)ccc4N(C)CCCN(C)C)ccc3C)cnc2n1` [Example 193, N-(2-((3-(dimethylamino)propyl)(methyl)amino)-5-(trifluoromethyl)phenyl)-4-methyl-3-(2-(methylamino)pyrido[2,3-d]pyrimidin-6-yl)benzamide], the IC50 is at most 25 µM.

Regarding `CN(C)CCCN(C)c1ccc(C(F)(F)F)cc1NC(=O)c1cc(-c2ccc3nc(N)ncc3c2)cn(C)c1=O` [Example 164, 5-(2-amino-6-quinazolinyl)-N-(2-((3-(dimethylamino)propyl)(methyl)amino)-5-(trifluoromethyl)phenyl)-1-methyl-2-oxo-1,2-dihydro-3-pyridinecarboxamide], the IC50 is at most 25 µM.

With `Cc1ccc(C(=O)Oc2c(F)c(F)c(F)c(F)c2F)cc1-c1ccc2nc(N)ncc2c1` [Example 423, Perfluorophenyl-3-(2-aminoquinazolin-6-yl)-4-methylbenzoate], the IC50 is at most 25 µM.

Turning to `Cc1ccc(C(=O)Nc2ccc(F)cc2F)cc1-c1ccc2nc(N)ncc2c1` [Example 424, 3-(2-amino-6-quinazolinyl)-N-(2,4-difluorophenyl)-4-methylbenzamide], the IC50 is at most 25 µM.

Consider `Cc1ccc(C(=O)Nc2cccc(C(F)(F)F)n2)cc1-c1ccc2nc(N)ncc2c1` [Example 359, 3-(2-amino-6-quinazolinyl)-4-methyl-N-(6-(trifluoromethyl)-2-pyridinyl)benzamide], for which the IC50 is at most 25 µM.

For `CNc1ncc2cc(-c3cccc(NC(=O)c4cc(F)cc(C(F)(F)F)c4)c3C)cnc2n1` [Example 219], the half-inhibitory concentration (IC50) was at most 25 µM.

`Cc1ccc(C(=O)Nc2cccc(C(F)(F)F)c2C)cc1-c1ccc2nc(NCCCN3CCCC3=O)ncc2c1` [Example 34, 4-methyl-N-(2-methyl-3-(trifluoromethyl)phenyl)-3-(2-((3-(2-oxo-1-pyrrolidinyl)propyl)amino)-6-quinazolinyl) benzamide]: the IC50 was at most 25 µM.

Turning to `Cc1ccc(C(=O)N[C@@H](C)c2nccs2)cc1-c1ccc2nc(N)ncc2c1` [Example 121, 3-(2-amino-6-quinazolinyl)-4-methyl-N-((1S)-1-(1,3-thiazol-2-yl)ethyl)benzamide], the IC50 was at most 25 µM.

With `Cc1ccc(C(=O)Nc2ccc(C(C)(C)C)cc2)cc1-c1ccc2nc(N)ncc2c1` [Example 128, 3-(2-amino-6-quinazolinyl)-N-(4-(1,1-dimethylethyl)phenyl)-4-methylbenzamide], the IC50 was at most 25 µM.

As to `CCN(CC)CCNC(=O)Nc1ccc(NC(=O)c2ccc(C)c(-c3cnc4nc(NC)ncc4c3)c2)cc1C(F)(F)F` [Example 188], the IC50 was at most 25 µM.

Regarding `Cc1ccc(C(=O)NCCc2cccnc2)cc1-c1ccc2nc(N)ncc2c1` [Example 427, 3-(2-amino-6-quinazolinyl)-4-methyl-N-(2-(3-pyridinyl)ethyl)b enzamide], the IC50 was at most 25 µM.

As to `Cc1ccc(C(=O)Nc2cccc(C(F)(F)F)c2C)cc1-c1ccc2nc(N)ncc2c1` [Example 369, 3-(2-amino-6-quinazolinyl)-4-methyl-N-(2-methyl-3-(trifluoromethyl)phenyl)benzamide], the IC50 was at most 25 µM.
